Reference: publication PMC11758220, “Identification of a Privileged Scaffold for Inhibition of Sterol Transport Proteins through the Synthesis and Ring Distortion of Diverse, Pseudo-Natural Products” (ACS Central Science, 2025)

Columns and labels:
STARD1 = molecular target: T1, STARD1 (Homo sapiens, UniProt P49675); assay: Fluorescence polarisation (FP) competition with NBD-cholesterol, STARD1; assay type: binding; conditions: for STARD1 (FP) inhibition / inhibition at 10 µM: single dose, Dose = 10 µM; for IC50: mean of three experiments run in technical duplicates
T1 construct: STARD1(66-284); made in house; host or cells: E. coli BL21(DE3)
T1 sequence (P49675 66-284): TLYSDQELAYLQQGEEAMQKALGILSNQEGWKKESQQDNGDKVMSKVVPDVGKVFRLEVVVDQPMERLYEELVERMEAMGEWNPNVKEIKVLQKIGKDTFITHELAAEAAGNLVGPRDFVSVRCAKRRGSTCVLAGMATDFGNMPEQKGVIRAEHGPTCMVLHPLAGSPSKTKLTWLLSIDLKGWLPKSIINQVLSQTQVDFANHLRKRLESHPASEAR

ORP2 = molecular target: T2, ORP2 (Homo sapiens, UniProt Q9H1P3); assay: Fluorescence polarisation (FP) competition with NBD-cholesterol, ORP2; assay type: binding; conditions: for ORP2 (FP) inhibition / inhibition at 10 µM: single dose, Dose = 10 µM; for IC50: mean of three experiments run in technical duplicates
T2 construct: ORP2(49-480); host or cells: E. coli BL21(DE3)
T2 sequence (Q9H1P3 49-480): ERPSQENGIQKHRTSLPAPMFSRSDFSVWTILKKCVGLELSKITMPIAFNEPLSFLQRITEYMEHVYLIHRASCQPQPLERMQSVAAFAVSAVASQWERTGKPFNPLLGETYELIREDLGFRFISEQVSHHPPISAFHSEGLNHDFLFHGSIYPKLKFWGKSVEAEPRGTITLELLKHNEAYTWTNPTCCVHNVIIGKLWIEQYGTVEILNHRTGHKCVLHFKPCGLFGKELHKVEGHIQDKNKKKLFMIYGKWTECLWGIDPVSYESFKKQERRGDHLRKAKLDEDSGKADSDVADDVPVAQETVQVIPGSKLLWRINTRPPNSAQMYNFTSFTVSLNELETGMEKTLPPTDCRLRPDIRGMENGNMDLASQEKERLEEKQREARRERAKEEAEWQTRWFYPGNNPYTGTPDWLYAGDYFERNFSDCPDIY
Description: Protein expression constructs
Human ASTER domains of Aster-A(359-547), -B(364-552) and -C(318-504) were subcloned into a pGEX-6p-2rbs vector, thus introducing the cloning artifact ‘GPLGS’.3 The pGEX-6P-1-GST-OSBP(377- […]
a gift from James H. Hurley (University of California).4 The pHIS_2His6_Thrombin_STARD4(2-205;C75S) plasmid was a gift from Young Jun Im (Chonnam National University).5 STARD5A was a gift from Nicola Burgess-Brown (Addgene plasmid #42392; http://n2t.net/addgene:42392; […]
Protein expression and purification […]
vectors including an N-terminal PreScission-cleavable glutathione S-transferase (GST)-tag were expressed in Escherichia coli (E. coli) OverExpress C41 in Terrific Broth (TB) medium for 16 h at 18 °C after the induction with 0.1 mM isopropyl β-D-1-thiogalactopyranoside (IPTG). Cells were harvested at 3500 × g for 15 minutes and lysed by sonication in buffer containing 50 mM HEPES pH 7.5, 300 mM NaCl, 10 %v/v glycerol, 5 mM dithiothreitol (DTT), 0.1 %v/v Triton X-100 and protease inhibitor mix HP plus (Serva). The lysate was purified by affinity chromatography on a GSTrap FF column (Cytiva) using an ÄKTA Start (Cytiva) in buffer containing 50 mM HEPES pH 7.5, 300 mM NaCl, 10 %v/v glycerol, 5 mM DTT and 0.01 %v/v Triton X-100. The GST-tag was cleaved overnight on the column at 4 °C. The Aster sterol binding domains were further purified by size-exclusion chromatography (SEC) on a HiLoad 16/600 Superdex 75 pg (Cytiva) in buffer containing 20 mM HEPES pH 7.5, 300 mM NaCl, 10 %v/v […]
STARD5(6-213) harboring an N-terminal His6-Tag were expressed in E. coli BL21(DE3) in Luria-Bertani Broth (LB) medium for approximately 16 h at 18 °C after induction with 0.15 mM IPTG. Cells were harvested at 3500 × g for 15 minutes and lysed by sonication in buffer containing 50 mM HEPES pH 7.5, 150 mM NaCl, 5 %v/v glycerol, 5 mM DTT, 0.1 %v/v Triton X -100 and ethylenediaminetetraacetic acid (EDTA)-free protease inhibitor cocktail (Sigma-Aldrich). The cleared lysate was purified by affinity chromatography on a Ni-NTA Superflow Cartridge (Qiagen) using an ÄKTA Start (Cytiva) in buffer containing 50 mM HEPES pH 7.5, 150 mM NaCl, 5 %v/v glycerol, 5 mM DTT. START domains were eluted by using elution buffer containing 50 mM HEPES pH 7.5, 150 mM NaCl, 5 %v/v glycerol, 5 mM DTT and 500 mM imidazole. Proteins were further purified by SEC on a HiLoad 16/600 Superdex 75 pg (Cytiva) in buffer containing 20 mM HEPES pH 7.5, 150 mM NaCl, 5 %v/v glycerol and 2 mM DTT.
The ORP domain of human OSBP(377-807) in the pGEX-6p-1 vector with an N-terminal PreScission-cleavable GST-tag was expressed in E. coli OverExpress C41 in LB medium for 16 h at 18 °C after induction with 0.1 mM IPTG. Cells were harvested at 3500 × g for 15 minutes and lysed by sonication in buffer containing 20 mM HEPES pH 7.5, 300 mM NaCl, 10 %v/v glycerol, 5 mM DTT, 0.1 %v/v Triton X-100 and EDTA-free protease inhibitor cocktail (Sigma-Aldrich). The cleared lysate was purified by affinity chromatography on a GSTrap HF column (Cytiva) using an ÄKTA Start (Cytiva) in buffer containing 20 mM HEPES pH 7.5, 300 mM NaCl, 10 %v/v glycerol, 5 mM DTT. OSBP(377 -807) was eluted by using elution buffer containing 20 mM HEPES pH 7.5, 300 mM NaCl, 10 %v/v glycerol, 5 mM DTT and 10 mM reduced glutathione. Proteins were further purified by SEC on a HiLoad 16/600 Superdex 75 pg (Cytiva) using an ÄKTA Explorer (Cytiva) in buffer containing 20 mM HEPES pH 7.5, 150 mM NaCl, 10 %v/v glycerol and 2 mM DTT.
The ORP domains of human ORP1(534-950) in pET24b(+) and ORP2(49-480) in the pET24b(+) vector including an N-terminal His6-Tag were expressed in E. coli BL21(DE3) in TB medium for approximately 16 h at 18 °C after induction with 0.1 mM IPTG. Cells were collected at 3500 × g for 15 minutes and lysed by sonification in buffer containing 10 mM Tris-HCl pH 8, 300 mM NaCl, 5 % glycerol, 2 mM DTT, 0.1 % Triton X-100 and EDTA-free protease inhibitor cocktail (Sigma-Aldrich). The cleared […]

SMILES | STARD1 (FP) inhibition (STARD1) [%] | ORP2 (FP) inhibition (ORP2) [%] | inhibition at 10 µM (STARD1) [%] | IC50 (ORP2) [µM] | inhibition at 10 µM (ORP2) [%] | IC50 (STARD1) [µM]
C[C@]12CC[C@@H](O)C[C@H]1CCc1nc3cc(Cl)c(Cl)cc3nc12 [Compound 7d] | 17 | 12 |  |  |  | 
CC12CCC3CC1CCC21C(=Nc2ccc(Cl)cc21)O3 (stereo not shown) [Compound 15c] |  |  | 20 | 22.2 | 47 | 
COc1ccc2c(c1)C(=O)N[C@]1(CCC[C@@H]3C[C@H](O)CC[C@@]31C)N2 [Compound 5c] | -3.33 | 12 | 5 |  | 24 | 
Cc1c2c(nc3ccccc13)[C@@]1(C)CC[C@@H](O)C[C@H]1CC2 [Compound 2a] |  |  | 30 |  | 43.5 | 
C[C@]12CC[C@@H](O)C[C@H]1CCc1nc3cc(F)c(F)cc3nc12 [Compound 7c] | 12 | 9 |  |  |  | 
COc1ccc2c(c1)C(=O)CC[C@@H]1C[C@H](O)CC[C@]1(C)C(=O)N2 [Compound 11d] |  |  | 5 |  | 11 | 
Cc1cc(C)c2c(c1)N=C1[C@@]2(O)CC[C@@H]2C[C@H](O)CC[C@]12C [Compound 14c] |  |  | 10 |  | 11 | 
Cc1ccc2[nH]c3c(c(=O)c2c1)C[C@@H]1C[C@H](O)CC[C@]31C [Compound 12] |  |  | 5 |  | 5 | 
CC12CCC3CC1CCC21C(=Nc2ccc(NCc4ccccc4)cc21)O3 (stereo not shown) [Compound 19b] |  |  | 35 |  | 41 | 
COc1ccc2[nH]c3c(c2c1)CC[C@@H]1C[C@H](O)CC[C@]31C [Compound 10f] |  |  | -1.67 |  | 36.5 | 
C[C@]12CC[C@@H](O)C[C@H]1CCC[C@]21Nc2ccccc2-n2cccc21 [Compound 4] | 20 | 25 | 35 |  | 12 | 
CCCCN(C)c1ccc2c(c1)[C@@]13CC[C@@H]4C[C@@H](CC[C@@]41C)OC3=N2 [Compound 19d] |  |  | 33 | > 80 | 51 | 
Cc1ccc2c(c1)[C@@]13CC[C@@H]4C[C@@H](CC[C@@]41C)OC3=N2 [Compound 15e] |  |  | 45 |  | 38 | 
C[C@]12CC[C@@H](O)C[C@H]1CCc1c2nc2ccccc2c1-c1ccc(F)cc1 [Compound 2d] |  |  | -8 |  | 14 | 
CC(C)Oc1ccc(C(=O)Nc2nc3c(s2)CN(C(=O)OC(C)(C)C)CC3)cc1 [Autogramin-2, reference compound] | 22 | 18 |  | 6.83 |  | > 80
C[C@]12CC[C@@H](O)C[C@H]1CCC(=O)c1cc(Br)ccc1NC2=O [Compound 11b] |  |  | 0 |  | 2 | 

SMILES | STARD1 (FP) inhibition (STARD1) [%] | ORP2 (FP) inhibition (ORP2) [%] | inhibition at 10 µM (STARD1) [%] | IC50 (ORP2) [µM] | inhibition at 10 µM (ORP2) [%] | IC50 (STARD1) [µM]
C[C@]12CC[C@@H](O)C[C@H]1CCc1c2[nH]c2c(F)cc(Cl)cc12 [Compound 10i] |  |  | -13 |  | 20 | 
CC12CCC3CC1CCC21C(=Nc2ccc(N4CCOCC4)cc21)O3 (single isomer, unassigned; (+)) [(+)-19a] | 12 | 7 |  | > 80 |  | > 80
C[C@]12CC[C@@H](O)C[C@H]1CCc1nc3ccccc3nc12 [Compound 7a] |  |  | 23 |  | 55 | 
C[C@]12CC[C@@H](O)C[C@H]1CCc1sc(-c3ccc(F)cc3)nc12 [Compound 8e] | 17 | 25 |  |  |  | 
C[C@]12CC[C@@H](O)C[C@H]1CCc1sc(-c3cccnc3)nc12 [Compound 8c] | -1.67 | 17 |  |  |  | 
C[C@]12CC[C@@H](O)C[C@H]1CCc1c2[nH]c2ncccc12 [Compound 3] |  |  | -3.33 |  | 2 | 
Cc1c2c(nc3cc(Br)ccc13)[C@@]1(C)CC[C@@H](O)C[C@H]1CC2 [Compound 2c] | 70 | 53 |  |  |  | 
C[C@]12CC[C@@H](O)C[C@H]1CCc1c2nc2ccccc2c1-c1ccccc1 [Compound 2b] | -3.33 | 14 |  |  |  | 
C[C@]12CC[C@@H]3C[C@H]1CC[C@@]21C(=Nc2ccc(-c4ccccc4)cc21)O3 [Compound 21a] |  |  | 67 |  | 58 | 
C[C@]12CC[C@@H]3C[C@H]1CC[C@@]21C(=Nc2ccc(N(Cc4ccccc4)c4ccc5c(c4)[C@@]46CC[C@@H]7C[C@@H](CC[C@@]74C)OC6=N5)cc21)O3 [Compound 20a] | -7 | 22 |  |  |  | 
C[C@]12CC[C@@H](O)C[C@H]1CCc1c2nc2ccc(Cl)cc2c1-c1ccccc1 [Compound 2e] | -8 | 15 |  |  |  | 
COc1ccc(-c2nc3c(s2)CC[C@@H]2C[C@H](O)CC[C@]32C)cc1 [Compound 8d] |  |  | 42 |  | 38 | 
Cc1ccc2[nH]c3c(c2c1)CC[C@@H]1C[C@H](O)CC[C@]31C [Compound 10e] |  |  | -3.33 |  | 50.6 | 
C[C@]12CC[C@@H](O)C[C@H]1CCc1c2[nH]c2ccccc12 [Compound 10a] | 35 | 34 |  |  |  | 
C[C@]12CC[C@@H]3C[C@H]1CC[C@@]21C(=Nc2ccc(C(F)(F)F)cc21)O3 [Compound 15g] |  |  | 25 | 8.41 | 60 | 
